Laboratory results: ChEMBL document CHEMBL4316605, “3-Acyltetramic acids as a novel class of inhibitors for human kallikreins 5 and 7” (Bioorg Med Chem Lett, 2019)

Tests used:
[1] = target: Kallikrein-5 (Homo sapiens) (UniProt Q9Y337); assay: Inhibition of human KLK5 assessed as residual enzyme activity at 10 uM
Kallikrein-7 [2] = target: T1, Kallikrein-7 (Homo sapiens, UniProt P49862); assay: Inhibition of human KLK7 assessed as residual enzyme activity at 10 uM
Target sequence in this assay (P49862 30-253 limits assumed): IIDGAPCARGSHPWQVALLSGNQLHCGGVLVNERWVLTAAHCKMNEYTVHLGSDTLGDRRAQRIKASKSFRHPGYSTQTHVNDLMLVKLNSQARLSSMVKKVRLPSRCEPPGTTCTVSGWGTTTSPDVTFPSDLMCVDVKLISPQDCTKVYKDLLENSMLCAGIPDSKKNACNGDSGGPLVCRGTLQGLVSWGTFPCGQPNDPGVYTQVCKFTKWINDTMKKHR

Kallikrein-5 = target: T2, Kallikrein-5 (Homo sapiens, UniProt Q9Y337); assay: Inhibition of human KLK5 assessed as reduction in enzyme activity
T2 sequence (Q9Y337 whole entry): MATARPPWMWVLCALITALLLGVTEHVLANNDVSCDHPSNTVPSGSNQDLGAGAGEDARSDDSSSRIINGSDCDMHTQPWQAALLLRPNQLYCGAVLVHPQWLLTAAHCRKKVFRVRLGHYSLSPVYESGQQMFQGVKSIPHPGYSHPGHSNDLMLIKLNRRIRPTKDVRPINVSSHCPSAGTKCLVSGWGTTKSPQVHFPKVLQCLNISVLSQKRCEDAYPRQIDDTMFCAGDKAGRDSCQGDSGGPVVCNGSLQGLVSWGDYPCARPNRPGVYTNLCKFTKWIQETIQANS

Kallikrein-7 [3] = target: T1, Kallikrein-7; assay: Inhibition of human KLK7 assessed as reduction in enzyme activity
Target sequence in this assay (P49862 whole entry): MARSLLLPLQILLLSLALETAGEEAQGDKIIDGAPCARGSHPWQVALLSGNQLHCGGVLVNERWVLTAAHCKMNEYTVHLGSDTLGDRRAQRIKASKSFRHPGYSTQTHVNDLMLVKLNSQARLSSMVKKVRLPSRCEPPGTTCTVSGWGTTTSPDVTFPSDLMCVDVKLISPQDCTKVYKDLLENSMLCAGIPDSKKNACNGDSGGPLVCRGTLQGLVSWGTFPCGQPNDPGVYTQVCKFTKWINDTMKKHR

Trypsin [4] = target: T3, Trypsin (Homo sapiens, UniProt P07477+P07478+P35030); assay: Inhibition of trypsin (unknown origin) assessed as reduction in enzyme activity; assay type: protein assay
[5] = target: Chymotrypsin (Homo sapiens) (UniProt Q99895+P17538+P40313+Q6GPI1); assay: Inhibition of Chymotrypsin (unknown origin) assessed as residual enzyme activity at 10 uM; assay type: protein assay
Trypsin [6] = target: T3, Trypsin; assay: Inhibition of trypsin (unknown origin) assessed as residual enzyme activity at 10 uM; assay type: protein assay

Row | Activity [1] | Activity (Kallikrein-7 [2]) | IC50 (Kallikrein-5) | IC50 (Kallikrein-7 [3]) | IC50 (Trypsin [4]) | Activity [5] | Activity (Trypsin [6]) | SMILES
1 | 0% | 0% | 1800 nM | 2500 nM | 2300 nM | 87% | 5% | CCCCCCCC/C=C\CCCCCCC/C(O)=C1/C(=O)[C@H](Cc2ccccc2)N(C(=O)OC(C)(C)C)C1=O
2 | 0% | 0% | 4900 nM | 1700 nM | 2400 nM | 90% | 20% | CCCCCCCCCCCCC/C(O)=C1/C(=O)[C@H](Cc2ccccc2)N(C(=O)OC(C)(C)C)C1=O
3 | 80% | 70% |  |  |  |  |  | CC(C)C/C(O)=C1/C(=O)[C@H](Cc2ccccc2)N(C(=O)OC(C)(C)C)C1=O

Second part, the molecule before the results:

Row | SMILES | Activity [1] | Activity (Kallikrein-7 [2]) | IC50 (Kallikrein-5) | IC50 (Kallikrein-7 [3]) | IC50 (Trypsin [4]) | Activity [5] | Activity (Trypsin [6])
4 | CCCC(C)/C(O)=C1/C(=O)[C@H](Cc2ccccc2)N(C(=O)OC(C)(C)C)C1=O (some centres not stated) | 0% | 0% | 8000 nM | 2500 nM |  |  | 
5 | CCCCCCCCCCCCCCC/C(O)=C1/C(=O)[C@H](Cc2ccccc2)N(C(=O)OC(C)(C)C)C1=O | 0% | 0% | 12000 nM | 2900 nM |  |  | 
6 | CC/C(O)=C1/C(=O)[C@H](Cc2ccccc2)N(C(=O)OC(C)(C)C)C1=O | 80% | 50% |  | 11000 nM |  |  | 
7 | CCCCC/C=C\C/C=C\CCCCCCC/C(O)=C1/C(=O)[C@H](Cc2ccccc2)N(C(=O)OC(C)(C)C)C1=O | 50% | 50% | 14000 nM | 14000 nM |  |  | 
8 | CCCCCCCCCCCCCCCCC/C(O)=C1/C(=O)[C@H](Cc2ccccc2)N(C(=O)OC(C)(C)C)C1=O | 0% | 0% | 17000 nM | 2800 nM |  |  | 
9 | CCCCCCCCCCC/C(O)=C1/C(=O)[C@H](Cc2ccccc2)N(C(=O)OC(C)(C)C)C1=O | 0% | 0% | 3600 nM | 2300 nM | 2100 nM | 98% | 10%
